Results: patent US6890736B1, “Methods for producing proteins in cultured cells” (Immunex Corporation, priority 2002, dated 2005)

Assays:
Format in all cases: cell-based, Chinese hamster
[1] = Example 2: cell number and viability; details: Chinese hamster; for viability at 6 day, 10 μM / viability at 8 day, 10 μM / viability at 0 day, 10 μM / viability at 3 day, 10 μM: 10 μM decitabine; for viability at 6 day, 10 μM / viability at 6 day, 15 μM / viability at 6 day, 20 μM: day 6; for viability at 8 day, 10 μM / viability at 8 day, 15 μM / viability at 8 day, 20 μM: day 8; for viability at 0 day, 15 μM / viability at 3 day, 15 μM / viability at 6 day, 15 μM / viability at 8 day, 15 μM: 15 μM decitabine; for viability at 0 day, 15 μM / viability at 0 day, 20 μM / viability at 0 day, 10 μM: day 0; for viability at 3 day, 15 μM / viability at 3 day, 20 μM / viability at 3 day, 10 μM: day 3; for viability at 0 day, 20 μM / viability at 3 day, 20 μM / viability at 6 day, 20 μM / viability at 8 day, 20 μM: 20 μM decitabine
Protocol: (§1) About 2×10^6 cells of cell line 25H9 were inoculated into 30 milliliters of serum-free medium and incubated at the temperatures indicated in Table 1 in vented shake flasks. At the times indicated in Table 1, samples were taken from each flask to determine IL-1R-II titer, cell number, and cell viability. IL-1R-II protein titer was determined by ELISA assay. Cell number was determined by counting cells in a hemocytometer. Cell viability was determined by trypan blue staining and counting stained cells in a hemocytometer. Cumulative viable cell density (CVCD) is the area under the curve of a plot of the viable cell density versus time (in units of cells/ml/day). Productivity (pg of IL-1R-II/cell/day) was determined by dividing the protein titer on a particular day by the CVCD on the same day. Cells were fed with amino acids on days 2 and 5, and dextrose was added periodically in order to maintain levels above 2.0 g/L. All samples were done in duplicate, and the data shown is an average value.
(§2) To determine an optimum temperature and decitabine concentration, three temperatures (30° C., 31° C., and 32° C.) and three decitabine concentrations (10 μM, 15 μM, and 20 μM) were tested. A 31° C. culture containing 0.5 mM sodium butyrate was grown as a control. […] See e.g. International Application Nos. WO 89/06686 and WO 87/05626. The experiment was performed as in Example 1 except that the inducer concentrations, temperatures, and days at which data was collected are as indicated in Table 2 and FIG. 1.

[2] = system: cell line 25H9 (CHO cells); assay: Example 2: cell number and viability
Protocol: as §1, §2

[3] = system: cell line 25H9 (CHO cells); assay: Example 3: cell number (Guava PCA Cytometer); details: 31° C., 10 μM
Protocol: as §1
The following experiment compares the effects of 5-bromo-2′-deoxycytidine 5′-monophosphate and 5-aza-2′-deoxycytidine on induction of protein production. The experiment was done as described in Example 1 with the following exceptions. All cultures were incubated at 31° C., and cell number and viability were determined using a Guava PCA Cytometer (available from Guava Technologies, Hayward, Calif., USA). Samples were done in triplicate.

[4] = CHO cell line 25H9 producing IL-1R-II, 30° C.
[5] = cell line 25H9 (CHO cells), 30° C.
[6] = cell line 25H9 (CHO cells), 31° C.
[7] = cell line 25H9 (CHO cells), 32° C.
[8] = 30° C., 10 μM decitabine, day 0
[9] = 30° C., 10 μM decitabine, day 3
[10] = 30° C., 10 μM decitabine, day 6
[11] = 30° C., 10 μM decitabine, day 8
[12] = 30° C., 15 μM decitabine, day 0
[13] = 30° C., 15 μM decitabine, day 3
[14] = 30° C., 15 μM decitabine, day 6
[15] = 30° C., 15 μM decitabine, day 8
[16] = 30° C., 20 μM decitabine, day 0
[17] = 30° C., 20 μM decitabine, day 3
[18] = 30° C., 20 μM decitabine, day 6
[19] = 30° C., 20 μM decitabine, day 8
[20] = 31° C., 10 μM decitabine, day 0
[21] = 31° C., 10 μM decitabine, day 3
[22] = 31° C., 10 μM decitabine, day 6
[23] = 31° C., 10 μM decitabine, day 8
[24] = 31° C., 15 μM decitabine, day 0
[25] = 31° C., 15 μM decitabine, day 3
[26] = 31° C., 15 μM decitabine, day 6
[27] = 31° C., 15 μM decitabine, day 8
[28] = 31° C., 20 μM decitabine, day 0
[29] = 31° C., 20 μM decitabine, day 3
[30] = 31° C., 20 μM decitabine, day 6
[31] = 31° C., 20 μM decitabine, day 8
[32] = 32° C., 10 μM decitabine, day 0
[33] = 32° C., 10 μM decitabine, day 3
[34] = 32° C., 10 μM decitabine, day 6
[35] = 32° C., 10 μM decitabine, day 8
[36] = 32° C., 15 μM decitabine, day 0
[37] = 32° C., 15 μM decitabine, day 3
[38] = 32° C., 15 μM decitabine, day 6
[39] = 32° C., 15 μM decitabine, day 8
[40] = 32° C., 20 μM decitabine, day 0
[41] = 32° C., 20 μM decitabine, day 3
[42] = 32° C., 20 μM decitabine, day 6
[43] = 32° C., 20 μM decitabine, day 8

Nc1ncn([C@H]2C[C@H](O)[C@@H](CO)O2)c(=O)n1 [decitabine, 5-aza-2′-deoxycytidine]
viability at 6 day, 10 μM [1, 4]: 70.3%
viability at 8 day, 10 μM [1, 4]: 49%
viability at 0 day, 15 μM [1, 4]: 94.2%
viability at 3 day, 15 μM [1, 4]: 88.9%
viability at 6 day, 15 μM [1, 4]: 85.9%
viability at 8 day, 15 μM [1, 4]: 33.2%
viability at 0 day, 20 μM [1, 4]: 94.2%
viability at 3 day, 20 μM [1, 4]: 93.3%
viability at 6 day, 20 μM [1, 4]: 77%
viability at 8 day, 20 μM [1, 4]: 48.4%
viability at 0 day, 10 μM ([1]; CHO cell line 25H9 producing IL-1R-II, 31° C.): 94.2%
viability at 0 day, 10 μM [1, 5]: 94.2%
viability at 3 day, 10 μM [1, 5]: 91.8%
viability at 3 day, 10 μM [1, 6]: 89.3%
viability at 6 day, 10 μM [1, 6]: 79.6%
viability at 8 day, 10 μM [1, 6]: 63.5%
viability at 0 day, 15 μM [1, 6]: 94.2%
viability at 3 day, 15 μM [1, 6]: 97.6%
viability at 6 day, 15 μM [1, 6]: 78.9%
viability at 8 day, 15 μM [1, 6]: 57.6%
viability at 0 day, 20 μM [1, 6]: 94.2%
viability at 3 day, 20 μM [1, 6]: 87.7%
viability at 6 day, 20 μM [1, 6]: 77.9%
viability at 8 day, 20 μM [1, 6]: 57.2%
viability at 0 day, 10 μM [1, 7]: 94.2%
viability at 3 day, 10 μM [1, 7]: 85.4%
viability at 6 day, 10 μM [1, 7]: 71.7%
viability at 8 day, 10 μM [1, 7]: 42.3%
viability at 0 day, 15 μM [1, 7]: 94.2%
viability at 3 day, 15 μM [1, 7]: 87.6%
viability at 6 day, 15 μM [1, 7]: 65.4%
viability at 8 day, 15 μM [1, 7]: 36.1%
viability at 0 day, 20 μM [1, 7]: 94.2%
viability at 3 day, 20 μM [1, 7]: 89.1%
viability at 6 day, 20 μM [1, 7]: 64.7%
viability at 8 day, 20 μM [1, 7]: 41.1%
Cumulative Viable Cell Density [2, 8]: 0 mL⁻¹ day⁻¹
Viable Cell Density [2, 8]: 2e+06 mL⁻¹
Cumulative Viable Cell Density [2, 9]: 7.4e+06 mL⁻¹ day⁻¹
Viable Cell Density [2, 9]: 3e+06 mL⁻¹
Cumulative Viable Cell Density [2, 10]: 1.43e+07 mL⁻¹ day⁻¹
Viable Cell Density [2, 10]: 1.7e+06 mL⁻¹
Cumulative Viable Cell Density [2, 11]: 1.81e+07 mL⁻¹ day⁻¹
Viable Cell Density [2, 11]: 2.1e+06 mL⁻¹
Cumulative Viable Cell Density [2, 12]: 0 mL⁻¹ day⁻¹
Viable Cell Density [2, 12]: 2e+06 mL⁻¹
Cumulative Viable Cell Density [2, 13]: 6.8e+06 mL⁻¹ day⁻¹
Viable Cell Density [2, 13]: 2.6e+06 mL⁻¹
Cumulative Viable Cell Density [2, 14]: 1.4e+07 mL⁻¹ day⁻¹
Viable Cell Density [2, 14]: 2.2e+06 mL⁻¹
Cumulative Viable Cell Density [2, 15]: 1.81e+07 mL⁻¹ day⁻¹
Viable Cell Density [2, 15]: 1.9e+06 mL⁻¹
Cumulative Viable Cell Density [2, 16]: 0 mL⁻¹ day⁻¹
Viable Cell Density [2, 16]: 2e+06 mL⁻¹
Cumulative Viable Cell Density [2, 17]: 7.9e+06 mL⁻¹ day⁻¹
Viable Cell Density [2, 17]: 3.3e+06 mL⁻¹
Cumulative Viable Cell Density [2, 18]: 1.63e+07 mL⁻¹ day⁻¹
Viable Cell Density [2, 18]: 2.3e+06 mL⁻¹
Cumulative Viable Cell Density [2, 19]: 2.04e+07 mL⁻¹ day⁻¹
Viable Cell Density [2, 19]: 1.8e+06 mL⁻¹
Cumulative Viable Cell Density [2, 20]: 0 mL⁻¹ day⁻¹
Viable Cell Density [2, 20]: 2e+06 mL⁻¹
Cumulative Viable Cell Density [2, 21]: 8.7e+06 mL⁻¹ day⁻¹
Viable Cell Density [2, 21]: 3.9e+06 mL⁻¹
Cumulative Viable Cell Density [2, 22]: 2.1e+07 mL⁻¹ day⁻¹
Viable Cell Density [2, 22]: 4.3e+06 mL⁻¹
Cumulative Viable Cell Density [2, 23]: 2.85e+07 mL⁻¹ day⁻¹
Viable Cell Density [2, 23]: 3.2e+06 mL⁻¹
Cumulative Viable Cell Density [2, 24]: 0 mL⁻¹ day⁻¹
Viable Cell Density [2, 24]: 2e+06 mL⁻¹
Cumulative Viable Cell Density [2, 25]: 7.9e+06 mL⁻¹ day⁻¹
Viable Cell Density [2, 25]: 3.3e+06 mL⁻¹
Cumulative Viable Cell Density [2, 26]: 1.92e+07 mL⁻¹ day⁻¹
Viable Cell Density [2, 26]: 4.2e+06 mL⁻¹
Cumulative Viable Cell Density [2, 27]: 2.58e+07 mL⁻¹ day⁻¹
Viable Cell Density [2, 27]: 2.4e+06 mL⁻¹
Cumulative Viable Cell Density [2, 28]: 0 mL⁻¹ day⁻¹
Viable Cell Density [2, 28]: 2e+06 mL⁻¹
Cumulative Viable Cell Density [2, 29]: 9.2e+06 mL⁻¹ day⁻¹
Viable Cell Density [2, 29]: 4.2e+06 mL⁻¹
Cumulative Viable Cell Density [2, 30]: 2.17e+07 mL⁻¹ day⁻¹
Viable Cell Density [2, 30]: 4.2e+06 mL⁻¹
Cumulative Viable Cell Density [2, 31]: 2.86e+07 mL⁻¹ day⁻¹
Viable Cell Density [2, 31]: 2.7e+06 mL⁻¹
Cumulative Viable Cell Density [2, 32]: 0 mL⁻¹ day⁻¹
Viable Cell Density [2, 32]: 2e+06 mL⁻¹
Cumulative Viable Cell Density [2, 33]: 8e+06 mL⁻¹ day⁻¹
Viable Cell Density [2, 33]: 3.4e+06 mL⁻¹
Cumulative Viable Cell Density [2, 34]: 1.9e+07 mL⁻¹ day⁻¹
Viable Cell Density [2, 34]: 3.9e+06 mL⁻¹
Cumulative Viable Cell Density [2, 35]: 2.49e+07 mL⁻¹ day⁻¹
Viable Cell Density [2, 35]: 2.1e+06 mL⁻¹
Cumulative Viable Cell Density [2, 36]: 0 mL⁻¹ day⁻¹
Viable Cell Density [2, 36]: 2e+06 mL⁻¹
Cumulative Viable Cell Density [2, 37]: 8e+06 mL⁻¹ day⁻¹
Viable Cell Density [2, 37]: 3.4e+06 mL⁻¹
Cumulative Viable Cell Density [2, 38]: 1.82e+07 mL⁻¹ day⁻¹
Viable Cell Density [2, 38]: 3.4e+06 mL⁻¹
Cumulative Viable Cell Density [2, 39]: 2.41e+07 mL⁻¹ day⁻¹
Viable Cell Density [2, 39]: 2.5e+06 mL⁻¹
Cumulative Viable Cell Density [2, 40]: 0 mL⁻¹ day⁻¹
Viable Cell Density [2, 40]: 2e+06 mL⁻¹
Cumulative Viable Cell Density [2, 41]: 8.3e+06 mL⁻¹ day⁻¹
Viable Cell Density [2, 41]: 3.6e+06 mL⁻¹
Cumulative Viable Cell Density [2, 42]: 1.87e+07 mL⁻¹ day⁻¹
Viable Cell Density [2, 42]: 3.3e+06 mL⁻¹
Cumulative Viable Cell Density [2, 43]: 2.36e+07 mL⁻¹ day⁻¹
Viable Cell Density [2, 43]: 1.6e+06 mL⁻¹
Viable Cell Density ([3]; day 0): 2.4 cells/ml × 10^6
Viable Cell Density ([3]; day 2): 2.4 cells/ml × 10^6
Viable Cell Density ([3]; day 5): 1.8 cells/ml × 10^6
Viable Cell Density ([3]; day 7): 1.1 cells/ml × 10^6
Viable Cell Density ([3]; day 9): 0.9 cells/ml × 10^6
